Source: patent US20250248979A1, “NOVEL GPX4 INHIBITORS AND USES THEREOF” (THE TRUSTEES OF COLUMBIA UNIVERSITY IN THE CITY OF NEW YORK, priority 2022, published 2025)

Molecular target: T1, GPX4 (Homo sapiens, UniProt P36969)
T1 sequence (P36969 1-170 isoform P36969-2): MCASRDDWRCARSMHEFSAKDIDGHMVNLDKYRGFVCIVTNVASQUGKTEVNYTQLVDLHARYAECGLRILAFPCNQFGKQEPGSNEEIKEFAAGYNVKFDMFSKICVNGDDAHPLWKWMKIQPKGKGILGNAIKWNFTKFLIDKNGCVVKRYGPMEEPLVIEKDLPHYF
Test: GPX4 activity assay in cell lysates (NADPH-coupled)
Assay type: biochemical
Parameters: endogenous in cells; host or cells: A-673 cell lysate
Method: Determination of GPX4 activity in cell lysates was performed as previously described by Roveri et al. 1994 with minor modifications. Briefly, the assay measures the consumption of NADPH, which has a characteristic absorbance at 340 nm, over time as a proxy for GPX4 activity. The rationale for this is that as GPX4 reduces phospholipid hydroperoxides, it oxidizes glutathione, which is then regenerated by glutathione reductase at the expense of NADPH. NADPH is added to the assay in excess such that the reduction of oxidized glutathione is not the rate-limiting reaction in the assay. Thus, the resulting reduction in NADPH absorbance over time reflects GPX4 activity.
The GPX4-specific substrate phosphatidylcholine hydroperoxide (PCOOH) was prepared by enzymatic hydroperoxidation. Specifically, 0.3 mM phosphatidylcholines (Sigma-Aldrich) were incubated with 0.7 mg soybean lipoxidase type IV (Sigma-Aldrich) in 22 mL of 0.2 M Tris-HCl pH 8.8 with 3 mM sodium deoxycholate at room temperature under continuous stirring for 30 minutes. A Sep-Pak C18 cartridge (Waters-Millipore) was pre-washed with methanol and equilibrated with water, then the substrate mixture was loaded. The column was washed with 10 volumes of water and PCOOH was eluted with 2 mL of methanol.
To prepare the cell lysate containing native GPX4, A-673 cells were cultured with 20 nM sodium selenite to confluency over two days then harvested and washed with cold PBS. Cells were then resuspended at 10 million cells per 1 mL LCW lysis buffer (0.5% peroxide-free Triton X-100, 0.5% sodium deoxycholate salt, 150 mM NaCl, 20 mM Tris-HCl pH 7.5, 10 mM EDTA, 30 mM sodium pyrophosphate, and complete protease inhibitor cocktail), vortexed for 30 seconds, and incubated on ice for 15 minutes. After lysis, the lysates were centrifuged at 14,000×g and 4° C. for 15 minutes. The supernatants were transferred to new pre-chilled tube and the debris pellet was discarded. The protein concentration in the lysate was determined for normalization using the BCA Protein Assay Kit (Pierce).
To measure GPX4 activity, 50 μL of cell lysate was combined with 200 μL activity assay buffer (0.1% Triton X-100, 100 mM Tris-HCl pH 8.0, 10 mM sodium azide, 5 mM EDTA, 0.6 IU/mL glutathione reductase, 0.5 mM NADPH and 3 mM GSH) and compounds of interest in a clear 96-well plate and incubated at 37° C. for 45 minutes. Compounds were dissolved in DMSO. All conditions were tested in triplicate. PCOOH substrate was added to the mixture to initiate GPX4 activity just before reading the plate. The absorbance of NADPH at 340 nm was monitored kinetically over time for 25 minutes. Buffer-only controls and controls without substrate containing only the methanol vehicle were performed to assess background and baseline signal. GPX4 activity was calculated as previously reported by Stolwijk et al. 2020 and results were analyzed in GraphPad Prism 9.

GPX4% inhibition at 5 μM (generation 2)	GPX4% inhibition at 5 μM	Compound	also measured
62.1 ± 2.4%	–	Cn1nc(C(=O)NC(C)(C)COC(=O)CCl)c2ccc([N+](=O)[O-])cc21 [QW-380]	–
–	–	Cn1nc(C(=O)NC(C)(C)C=O)c2ccccc21 [QW-387]	GPX4% inhibition at 20 (μM) (generation 2): 4.1 ± 4.7%
–	–	Cn1nc(C(=O)NC(C)(C)CC=O)c2ccccc21 [QW-388]	GPX4% inhibition at 20 (μM) (generation 2): 1.6 ± 1.9%
–	–	Cn1nc(C(=O)NC(C)(C)C(O)S(=O)(=O)[O-])c2ccccc21.[Na+] (stereo not drawn) [QW-389]	GPX4% inhibition at 20 (μM) (generation 2): 32.2 ± 2.5%
–	–	CC(C)(COC(=O)CCl)NC(=O)c1n[nH]c2ncccc12 [QW-390]	GPX4% inhibition at 20 (μM) (generation 2): 4.0 ± 3.9%
–	–	CC(C)(COC(=O)CCl)NC(=O)c1ncn2ccccc12 [QW-391]	GPX4% inhibition at 20 (μM) (generation 2): 5.3 ± 8.5%
4.5 ± 17.8%	–	Cn1nc(C(=O)NC(C)(C)CC(O)S(=O)(=O)[O-])c2ccccc21.[Na+] (stereo not drawn) [QW-394]	–
20.3 ± 9.5%	–	COc1cccc2c(C(=O)NC(C)(C)COC(=O)CCl)nn(C)c12 [QW-398]	–
−14.3 ± 5.2%	–	CC(C)(COC(=O)CCl)NC(=O)c1nc2cc(Br)ccc2[nH]1 [QW-407]	–
−6.0 ± 3.1%	–	CC=CC(=O)OCC(C)(C)NC(=O)c1nn(C)c2ccccc12 [QW-411]	–
−5.7 ± 8.0%	–	COC(=O)C=CC(=O)OCC(C)(C)NC(=O)c1nn(C)c2ccccc12 [QW-412]	–
−9.1 ± 13.4%	–	CC=CC(=O)OCC(C)(C)NC(=O)c1nn(C)c2cc(Br)ccc12 [QW-414]	–
−9.4 ± 8.1%	–	COC(=O)C=CC(=O)OCC(C)(C)NC(=O)c1nn(C)c2cc(Br)ccc12 [QW-415]	–
25.3 ± 13.4%	–	Cn1nc(C(=O)NC(C)(C)COC(=O)CBr)c2ccc(Br)cc21 [QW-416]	–
−5.2 ± 10.0%	–	C=CC(=O)OCC(C)(C)NC(=O)c1nn(C)c2cc(Br)ccc12 [QW-417]	GPX4 inhibitory activity, result in words: inactive during GPX4 inhibition
−5.6 ± 5.1%	–	Cn1nc(C(=O)NC(C)(C)COC(=O)C#C[Si](C)(C)C)c2ccc(Br)cc21 [QW-418]	–
−10.9 ± 8.0%	–	C#CC(=O)OCC(C)(C)NC(=O)c1nn(C)c2cc(Br)ccc12 [QW-420]	–
−11.3 ± 4.7%	–	Cn1nc(C(=O)NC(C)(C)COC(=O)CCl)c2cccnc21 [QW-426]	–
−2.3 ± 2.3%	–	Cc1cc(C(=O)OCC(C)(C)NC(=O)c2nn(C)c3cc(Br)ccc23)no1 [QW-429]	–
–	34.1 ± 0.3%	Cn1nc(C(=O)NC(C)(C)COC(=O)CCl)c2ccc(-c3ccc(F)nc3)cc21 [QW-444]	–
–	21.2 ± 5.7%	Cn1nc(C(=O)NC(C)(C)COC(=O)CCl)c2ccc(-c3ccc(C#N)cc3)cc21 [QW-445]	GPX4 inhibitory activity, result in words: inactive during GPX4 inhibition
–	37.7 ± 4.1%	Cn1nc(C(=O)NC(C)(C)COC(=O)CCl)c2ccc(-c3ccoc3)cc21 [QW-451]	–
–	55.0 ± 5.8%	Cn1nc(C(=O)NC(C)(C)COC(=O)CCl)c2ccc(-c3cccc([N+](=O)[O-])c3)cc21 [QW-452]	GPX4 inhibition rate (concentration not given): 50%
–	67.0 ± 4.7%	Cn1nc(C(=O)NC(C)(C)COC(=O)CCl)c2ccc(-c3cc4ccccc4[nH]3)cc21 [QW-453]	–
–	54.4 ± 7.2%	Cn1nc(C(=O)NC(C)(C)COC(=O)CCl)c2ccc(-c3ccc4c(c3)OCCO4)cc21 [QW-457]	–
–	−10.3 ± 4.3%	Cn1nc(C(=O)NC(C)(C)COC(=O)CCl)c2ccc(-c3cccc4[nH]ccc34)cc21 [QW-467]	–

GPX4% inhibition at 5 μM (generation 2)	GPX4% inhibition at 5 μM	Compound	also measured
–	64.3 ± 0.7%	Cn1nc(C(=O)NC(C)(C)COC(=O)CCl)c2ccc(-c3ccc(OC(F)(F)F)cc3)cc21 [QW-469]	–
–	59.6 ± 6.8%	COc1cc(-c2ccc3c(C(=O)NC(C)(C)COC(=O)CCl)nn(C)c3c2)cc(OC)c1OC [QW-479]	–
–	35.8 ± 7.4%	COc1ccccc1-c1ccc2c(C(=O)NC(C)(C)COC(=O)CCl)nn(C)c2c1 [QW-483]	–
–	3.3 ± 3.0%	COc1cccc(OC)c1-c1ccc2c(C(=O)NC(C)(C)COC(=O)CCl)nn(C)c2c1 [QW-487]	GPX4 inhibitory activity, result in words: completely loss of the inhibitory effect
–	77.1 ± 10.4%	Cn1nc(C(=O)NC(C)(C)COC(=O)CCl)c2ccc(-c3cccc(F)c3)cc21 [QW-493]	–
–	76.8 ± 2.3%	Cn1nc(C(=O)NC(C)(C)COC(=O)CCl)c2ccc(-c3ccc(Cl)cc3)cc21 [QW-494]	–
−15.1 ± 8.4%	–	Cn1nc(C(=O)NCCCCCC=O)c2ccc(Br)cc21 [QW-497]	–
–	−10.2 ± 6.5%	Cn1nc(C(=O)NC(C)(C)COC(=O)CCl)c2ccc(-c3ccc(C(F)(F)F)cc3)cc21 [QW-502]	GPX4 inhibitory activity, result in words: inactive during GPX4 inhibition
–	65.3 ± 3.2%	Cn1nc(C(=O)NC(C)(C)COC(=O)CCl)c2ccc(-c3ccc(OCc4ccccc4)cc3)cc21 [QW-503]	–
–	28.3 ± 3.0%	CC(C)Oc1ccccc1-c1ccc2c(C(=O)NC(C)(C)COC(=O)CCl)nn(C)c2c1 [QW-509]	–
–	67.2 ± 1.9%	Cn1nc(C(=O)NC(C)(C)COC(=O)CCl)c2ccc(-c3cccc(OC(=O)CCl)c3)cc21 [QW-510]	–
–	50.1 ± 2.4%	Cn1nc(C(=O)NC(C)(C)COC(=O)CCl)c2ccc(-c3ccc(COC(=O)CCl)cc3)cc21 [QW-513]	–
–	44.8 ± 6.6%	Cn1nc(C(=O)NC(C)(C)COC(=O)CCl)c2ccc(C3=CCc4ccccc43)cc21 [QW-514]	–
−10.7 ± 7.8%	–	Cn1nc(C(=O)NCCCCCC(O)S(=O)(=O)[O-])c2ccc(Br)cc21.[Na+] (stereo not drawn) [QW-517]	–
−9.8 ± 6.7%	–	Cn1nc(C(=O)NCCCCCCOC(=O)CCl)c2ccc(Br)cc21 [QW-520]	–
−19.3 ± 9.9%	–	Cn1nc(C(=O)NCCCCCOC(=O)CCl)c2ccc(Br)cc21 [QW-521]	–
−24.5 ± 0.5%	–	Cn1nc(C(=O)NCCCCC=O)c2ccc(Br)cc21 [QW-527]	–
−36.6 ± 4.8%	–	Cn1nc(C(=O)NCCCCC(O)S(=O)(=O)[O-])c2ccc(Br)cc21.[Na+] (stereo not drawn) [QW-534]	–
–	62.2 ± 5.1%	Cn1nc(C(=O)NC(C)(C)COC(=O)CCl)c2ccc(-c3coc4ccccc34)cc21 [QW-535]	–
–	46.6 ± 2.3%	CCOc1ncc(-c2ccc3c(C(=O)NC(C)(C)COC(=O)CCl)nn(C)c3c2)cn1 [QW-536]	–
–	46.1 ± 2.7%	Cn1nc(C(=O)NC(C)(C)COC(=O)CCl)c2ccc(-c3ccc(N4CCOCC4)nc3)cc21 [QW-537]	–
–	49.6 ± 4.5%	Cn1nc(C(=O)NC(C)(C)COC(=O)CCl)c2ccc(-c3ccc(CN4CCOCC4)cc3)cc21 [QW-539]	–
–	75.6 ± 4.5%	Cn1nc(C(=O)NC(C)(C)COC(=O)CCl)c2ccc(-c3cnc4ccccc4c3)cc21 [QW-542]	–
–	72.0 ± 0.4%	Cn1nc(C(=O)NC(C)(C)COC(=O)CCl)c2ccc(-c3ccc(N4CCOCC4)cc3)cc21 [QW-547]	–
–	80.2 ± 1.8%	COc1cc(-c2ccc3c(C(=O)NC(C)(C)COC(=O)CCl)nn(C)c3c2)ccc1Cl [QW-556]	GPX4 inhibitory activity, result in words: reduced the inhibitory activity
–	91.2 ± 2.3%	CSc1ccc(-c2ccc3c(C(=O)NC(C)(C)COC(=O)CCl)nn(C)c3c2)cc1Cl [QW-558]	–

Compound	GPX4% inhibition at 5 μM (generation 2)	GPX4% inhibition at 5 μM	also measured
Cn1nc(C(=O)NC(C)(C)COC(=O)CCl)c2ccc(-c3ccccc3Cl)cc21 [QW-492]	–	45.7 ± 4.9%	–
CC(C)Oc1ccc(Cl)cc1-c1ccc2c(C(=O)NC(C)(C)COC(=O)CCl)nn(C)c2c1 [QW-495]	–	22.9 ± 7.5%	–
Cn1nc(C(=O)NC(C)(C)COC(=O)CCl)c2ccc(-c3ccc(F)c(F)c3)cc21 [QW-500]	–	57.5 ± 5.3%	–
C=Cc1ccc(-c2ccc3c(C(=O)NC(C)(C)COC(=O)CCl)nn(C)c3c2)cc1 [QW-554]	–	41.4 ± 4.5%	–
C#Cc1ccc(-c2ccc3c(C(=O)NC(C)(C)COC(=O)CCl)nn(C)c3c2)cc1 [QW-555]	–	20.2 ± 0.5%	–
